Three compounds from patent US20030186464A1, “Surface plasmon resonance methods” (priority 2002, published 2003) can be followed below.

In test [1] the target is wild type human IL-2 (Homo sapiens, UniProt P60568). Nature of the test: SPR binding of compounds to immobilized wild type IL-2 (Examples 1-2). To be noted: for IL-2 wt Kd: immobilized wild type human IL-2. For orientation: In SPR one partner is held on a chip, and binding of the other changes the refractive index at the surface.
Test [2] concerns the target T1, Y31C-IL-2-SS -3 (Homo sapiens, UniProt P60568, Y51C).
T1 construct: made in house; host or cells: E. coli
Nature of the test: SPR binding of compound to immobilized IL-2-SS-ligand complex (Examples 1-2). The settings on record: immobilized substrate-SS-ligand complex Y31C-IL-2-SS -3. As for the experimental part: (§1) A CM5 sensor chip (Biacore-BR-1000-14) is docked in a Biacore 2000 SPR device, and the chip is then normalized using a standard Biacore protocol with 70% glycerol. The chip is next equilibrated in PBS for approximately 1 hr at a 20 μL/min flow rate. The dextran surface of the chip is activated through an NHS/EDC coupling. This activation is done using an amine coupling kit (Biacore—BR-100-50) containing N-hydroxysuccinimide (NHS 11.5 mg/mL) and N-ethyl-N′-(3-dimethylaminopropyl) carbodiimide hydrochloride (EDC 75 mg/mL). The two reagents are first mixed in a 1:1 ratio and then 35 μL of the mixture are injected at 5 mL/min. The chip is activated one flow cell at a time, and that flow cell is subsequently labeled with protein.
(§2) IL-2 cysteine mutants are expressed in E. coli cells and purified using standard procedures. The cysteine mutants are treated with 10 mM βME overnight to reduce the surface cysteine. The βME is removed and the protein-thiolate is placed in 100 mM HEPES buffer pH 7.4 (Nap-5 column, Pierce). […]
(§3) The protein-SS—ligand complex is next concentrated to 100 μM using a Millipore-UFV5BCCOO 5K NMWL membrane, 0.5 mL centrifugal filter and tube. […] After injection the change in RUs is measured by marking the RUs at t=0 and t=final and subtracting. […]
(§4) The dilution series are analyzed by BIAevaluation software version 3.0. […]

In test [3] the target is T2, Y31C-IL-2-SS -4 (Homo sapiens, UniProt P60568, Y51C).
T2 construct: made in house; host or cells: E. coli
The description is as above. To be noted: immobilized substrate-SS-ligand complex Y31C-IL-2-SS -4. As for the experimental part: as §1, §2, §3, §4

For test [4], the target named is T3, immobilized IL-2 (Homo sapiens, UniProt P60568).
T3 construct: made in house; host or cells: E. coli
In words: Double ligand SPR on immobilized interleukin-2 (Examples 9-11). It counts as binding. To be noted: for Kd: Example 11, immobilized interleukin-2, read-out: apparent Kd in SPR experiments. The protocol: as §1, with “SPR device” for “SPR device,”, “and” for “and the chip is then”, “This coupling” for “This activation”, “mg/mL). First, the” for “mg/mL). The”, “are” for “are first”, “5 μL/min.” for “5 mL/min.”
IL-2 is expressed in E. coli cells and purified using standard procedures. Protein is then concentrated to 100 μM and the buffer is exchanged to 100 mM MES pH 5.75 (Nap-5 column, Pierce). A sensorgram is then run over the activated flow cell at 2,L/min of PBS. The IL-2 solution is then injected at 2 μL/min for 10 min. After injection the change in RUs is measured by marking the RUs at t=0 and t=final and subtracting. This gives the total RU change, which is related to the total mass of protein successfully coupled to the CM5 surface. The total mass will later be used to determine stoichiometry of binding. This procedure is then repeated with another arbitrary protein to create a measure for nonspecific binding. The arbitrary protein is immobilized on an adjacent cell. […] The sensorgram is then altered to flow across all four cells on the CM5 chip at 5 μL/min PBS. A solution of 1 M ethanolamine hydrochloride-NaOH pH 8.5 (Amine coupling kit, Biacore-BR-100-50) is injected at 5 μL/min for 7 min. Proteins are immobilized at densities of 100-160 fmol/mm^2. The chip is equilibrated overnight in PBS+0.05% azide+2% DMSO at 20 μL/min.
In this experiment, variable concentrations of a compound are tested at a constant concentration of another compound. The compound held constant is 2c, for example (structure shown in Example 2). To determine appropriate constant concentrations for 2c, a compound titration is first performed. Dilution series of the compounds are typically performed to produce seven solutions having final compound concentrations of 30 mM, 10 mM, 3.3 mM, 1.1 mM, 0.37 mM, 0.12 mM, and 0.041 mM; an eighth solution is a DMSO-only baseline. The compounds are then diluted into PBS+0.05% azide to final concentrations of 300 μM, 100 μM, 33 μM, 11 μM, 3.7 μM, 1.2 μM, 0.41 μM. The compound solutions are injected from lowest concentration to highest at 40 μL/min for 1 min. The SPR software method includes a 1 min wash before injection, the injection and then a 3 min wash after the injection.
These dilution series are analyzed by BIAevaluation software version 3.0. Sensorgrams are plotted for compound binding to the IL-2 labeled cell of the chip. The sensorgrams are modified by subtracting the sensorgrams for the appropriate compound dilutions over cell 1 (a blank cell). This subtraction step removes any RU changes that might occur due to non-specific interactions between the compound and the chip itself or refractive changes in the buffer. Finally, the eight sensorgrams produced from the compound dilution series are zeroed at the average of their starting RUs. Then the sensorgram produced by injecting DMSO only is subtracted to reveal the final sensorgrams used to determine relative binding.
To determine KdSPR for the compound, the compound concentration is plotted on the X-axis, while the fraction bound at the plateau of the injection is plotted on the Y-axis. The curve is then analyzed via non-linear regression analysis (Kaleidagraph, Synergy Software). […] The concentration chosen is where the RUs remain constant at the top of the binding curve and thus the IL-2:2c ratio is 1. For 2c, this concentration is 100 μM.
A second compound is then run, this time in both the presence and absence of 2c. […]

Test [5] deals with T4, K43C-IL-2-SS -2 (Homo sapiens, UniProt P60568, K63C).
T4 construct: made in house; host or cells: E. coli
Nature of the test: SPR binding of compounds to immobilized IL-2-SS-ligand complex (Examples 1-2). The settings on record: immobilized substrate-SS-ligand complex K43C-IL-2-SS -2. As for the experimental part:
as §1, §2, §3, §4

T3 sequence (P60568 21-153): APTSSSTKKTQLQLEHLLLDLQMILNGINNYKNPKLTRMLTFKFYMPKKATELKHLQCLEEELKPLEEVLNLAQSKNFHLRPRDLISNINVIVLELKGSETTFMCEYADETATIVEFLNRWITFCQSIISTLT
Sequence of wild type human IL-2 (P60568 21-153): as above
T4 sequence (P60568 21-153 K63C): as the sequence (P60568 21-153) above, with K43C counted along it
T1 sequence (P60568 21-153 Y51C): as the sequence (P60568 21-153) above, with Y31C counted along it
T2 sequence (P60568 21-153 Y51C): as the sequence (P60568 21-153) above, with Y31C counted along it

With `COC(=O)[C@H](Cc1ccc(C=Cc2ccccc2)cc1)NC(=O)C[C@H]1CCCN(C(=N)N)C1` [Compound 2c], the Kd in test [1] (immobilized wild type human IL-2, read-out: IL-2 wt Kd) was found to be 33 µM; in test [2] it was 8 µM; in test [3] it was 30 µM; in test [4], 10 µM.

Regarding `COCN(C)C(=O)c1ccc(C(C)C)cc1` [Compound 4c], the “IL-2 wt Kd” value in test [1] is listed as “Inactive”. In test [5], this compound displayed a Kd of 210 µM. In addition, in test [4] (immobilized IL-2, no other compound), the “Kd,SPR IL-2” value is “Inactive”.

On to `COCC(=O)N1CCc2c([nH]c3ccccc23)C1` [Compound 3c], for which the “IL-2 wt Kd” value in test [1] was “Inactive”. The values for the Kd in test [5] and in test [4] were 250 µM and > 500 µM, respectively.
